Publication PMC12346692, “SUL-150 Limits Vascular Remodeling and Ventricular Failure in Pulmonary Arterial Hypertension” (International Journal of Molecular Sciences, 2025)
Marks after values point to notes of the source that are not given here.

Columns and labels:
pulmonary artery rings = assay: Ex vivo myography of pulmonary artery rings, acute SUL-150 pre-incubation, phenylephrine-induced vasoconstriction; set-up: species or system rat; details: 10^−4 M SUL-150 pre-incubation
Procedure: The fourth-degree branching intralobar pulmonary arteries were carefully dissected under a Leica S4E stereomicroscope as described before. Arterial ring segments (2 mm length) were mounted in a Mulvany-type wire myograph system (model #610M, Danish Myo Technology, Aarhus, Denmark) using Ø40 µm steel wire. Rings were preserved in myography chambers filled with aerated Krebs buffer (pH 7.4) at 37 °C. After 20 min equilibration, rings were stretched to 1.8 kPa using the DMT Normalization Procedure and allowed to equilibrate for an additional 20 min. Analogue–digital signal conversion was performed using PowerLab 8/30, and a myogram was recorded in PowerLab Chart v 5.3 (AD Instruments, Oxford, UK). To assess the acute effects of SUL-150 on vasoconstriction, arterial rings were pre-constricted with 60 mM KCl and, following washout and stabilization, incubated with vehicle (0.1% DMSO) or SUL-150 (10^−4 M) for 20 min. Next, constriction responses to phenylephrine (phenylephrine, Sigma-Aldrich, St. Louis, MO, USA) were recorded in the dose range of 3 × 10^−9 to 3 × 10^−5 M. To assess the chronic effects of SUL-150 treatment, a similar protocol was followed, leaving out the preincubation with vehicle or SUL-150. Isometric responses were calculated as % of maximal KCl-induced constriction, and dose–response curves were recorded to determine the efficacy (Emax) and potency (EC50) of phenylephrine to induce vasoconstriction.

PAH rats = assay: Heart weights and Fulton index at sacrifice; assay type: in vivo, rat; details: ~6 mg·kg^−1·day^−1 i.p. minipump, 28 days
Procedure: Rats were euthanized under 3–5% isoflurane anesthesia by exsanguination by aorta puncture. Hearts, lungs, and pulmonary arteries were harvested and processed for further analyses. The hearts were weighed and dissected into the left atrium, ventricle, right atrium, and ventricle and septum, which were all individually weighted. The Fulton Index was calculated as: Fulton Index=RV/(LV+IVS) , wherein RV and LV are right and left ventricular weights, respectively, and IVS is the weight of the interventricular septum. The right ventricle was cut in half, and one half was fixed in 3.6% formalin and embedded in paraffin. The other half was snap frozen in liquid nitrogen. The left lung lobe was fixed by filling the airways with 3.6% formalin and embedded in paraffin. The right lung lobe was snap frozen in liquid nitrogen.

[1] = system: PGC1α, mtTFA, PINK1, Parkin; assay: Immunoblotting of right ventricle for mitogenesis and mitophagy markers; assay type: in vivo, rat; details: PAH rats, ~6 mg·kg^−1·day^−1 i.p. minipump, 28 days; result in words
Procedure: Protein lysates were prepared from the right ventricle using RIPA buffer (ThermoFisher, Waltham, MA, USA) and supplemented with 0.5% proteinase inhibitor cocktail (Sigma-Aldrich, St. Louis, MO, USA) and 0.5% Halt™ phosphatase inhibitor (ThermoFisher, Waltham, MA, USA). […] Twenty micrograms of total protein per sample was loaded on mini-PROTEAN precast gradient gels (4–15% denaturing SDS–polyacrylamide gel; Bio-Rad, Hercules, CA, USA), separated by gel electrophoresis, and blotted onto nitrocellulose membrane using the Trans-Blot turbo system (Bio-Rad, Hercules, CA, USA) according to standard protocols. Blots were blocked with 5% bovine serum albumin in 20 mM Tris-HCl (pH 7.4) at room temperature for 30 min and incubated at 4 °C overnight with primary antibodies to mtTFA (sc-166965, Santa Cruz Biotechnology, Dallas, TX, USA), PGC1α (NBP1-04676, Bio-Techne, Abingdon, UK), PINK1 (BC100-494, Bio-Techne, Abingdon, UK), Parkin (sc-32282, Santa Cruz Biotechnology, Dallas, TX, USA), or Tubulin (Sigma-Aldrich, St. Louis, MO, USA), all at a dilution of 1:500. Alkaline phosphatase-conjugated secondary antibodies and NBT/BCIP (Bio-Rad, VA, USA) were used for detection. Densitometric analysis was performed using Totallab 120 (Nonlinear Dynamics, Newcastle upon Tyne, UK).

[2] = system: right ventricle of PAH rats; assay: Right ventricle mtDNA copy number, radical scavenging, lipid peroxidation and ATP; details: ~6 mg·kg^−1·day^−1 i.p. minipump, 28 days

Cc1c(C)c2c(c(C)c1O)CC[C@](C)(C(=O)N1CCNCC1)O2 [SUL-150, (R)-(6-hydroxy-2,5,7,8-tetramethylchroman-2-yl)(piperazin-1-yl)methanone]
Emax of phenylephrine-induced vasoconstriction after SUL-150 pre-incubation (pulmonary artery rings; pulmonary artery rings of PAH rats (day 21 post-MCT)): 11.03 % of max | Emax of phenylephrine-induced vasoconstriction after SUL-150 pre-incubation (pulmonary artery rings; pulmonary artery rings of sham rats, % of maximal KCl-induced constriction): 15.6 % of max | Heart weight (relative to body weight) (PAH rats): 4.37 ± 0.66 ^a mg·g^−1 | IVS weight (relative to body weight) (PAH rats): 0.81 ± 0.22 mg/g | LA weight (relative to body weight) (PAH rats): 0.23 ± 0.11 ^a mg·g^−1 | LV weight (relative to body weight) (PAH rats): 1.60 ± 0.29 ^a mg·g^−1 | RA weight (relative to body weight) (PAH rats): 0.38 ± 0.12 ^a mg·g^−1 | RV weight (relative to body weight) (PAH rats): 1.23 ± 0.31 ^a mg·g^−1 | Fulton Index (PAH rats; RV/(LV+IVS)): 0.51 ± 0.09 ^a | right ventricular protein expression of PGC1α and mtTFA [1]: did not alter | right ventricular protein expression of PINK1 and Parkin [1]: maintained the expression | ATP level of the right ventricle [2]: 272.2 ± 26.6 pmol/mg | endogenous radical scavenging activity in right ventricle ([2]; result in words): maintained | lipid peroxidation level in right ventricle ([2]; result in words): decreased lipid peroxidation level to those of sham rats
